SMILES | melting point
CC(=O)C1=NN(c2ccc(C(=O)O)c(Cl)c2)C(=O)C1 | > 250 °C
CCOC(=O)C1(CCCCOc2ccc(C(=O)OC)cc2)Cc2c(OC)c(OC)c(OC)c(OC)c2C1=O (stereo not drawn) | 116 to 118 °C
COC(=O)C(=C(C)NCC(O)CO)c1nc(NC(C)=O)c([N+](=O)[O-])nc1Cl (stereo not drawn) | 70 to 73 °C
COc1ccc(CS[C@H]2C[C@@H](C(=O)N3CCN(CCO)CC3)N(C(=O)OCc3ccc([N+](=O)[O-])cc3)C2)cc1 | 140 to 141 °C
CCCCc1nc2cccc(C(=O)O)c2n1Cc1ccc(-c2c(-c3nnn[nH]3)oc3ccccc23)cc1 | 194 to 195 °C
CN1CCC(OC2c3ccccc3CCn3c2nc(-c2ccccc2)c3C(=O)O)CC1 (stereo not drawn) | 185 °C
CCCCCCCc1ccc(-c2ccc(N)cc2)cc1 | 79 °C
N#Cc1cc(C(=O)c2ccncc2)ccc1O | 310 to 311 °C
CC(C)NC(=O)c1ccccc1F | 76 to 78 °C
OCc1cccc2c1SC(c1ccccc1)=CC2 | 120 to 122 °C
COc1ccc(/C=C/C(=O)N2CCc3ccccc32)cc1OC | 118 to 120 °C
CN1C(=O)C(C)(C)N=C(c2ccccc2F)c2c1ccc(N)c2Br | 217 to 220 °C
Cc1cc(-c2cc(C(F)F)n3ncc(-c4nc(-c5ccc(N)nc5)no4)c3n2)ccc1Cl | 243 °C
CN(C)CCNC(=O)c1ccc(C(Cc2ccc(F)cc2)C(=O)Nc2nc3ccccc3o2)cc1 (stereo not drawn) | 149 to 151 °C
CSC(C)=NOC(=O)NCSN(C(C)(C)C)P1(=O)OCC(C)(C)CO1 | 134 °C
CCCCn1c(=O)c2c(NC)n[nH]c2n(Cc2ccccc2)c1=O | 282 to 284 °C
CSCC(C)(C)NC(=O)c1c(I)cccc1C(=O)Nc1ccc(-c2nnnn2C2CC2)cc1C | 131 to 132 °C
Cn1ncc(C(=O)c2ccc(S(C)(=O)=O)cc2Cl)c1O | 272 to 275 °C
O=c1c2ccc(Cl)cc2[nH]c2c(=O)n(CCO)nc(O)c12 | 377 to 378 °C
COc1cc2c(Nc3ccc(Oc4ccccc4OC)cc3)c(C#N)cnc2cc1F | 146 to 150 °C

SMILES | melting point
CCOc1ccccc1C(=O)C=Cc1ccc2ccccc2c1 | 96 to 97 °C
O=C(Nc1ccccc1N1CCc2ccccc21)C1CCC1 | 81 to 83.5 °C
Cc1cc(-c2cc(C(F)(F)F)n3ncc(I)c3n2)ccc1Cl | 151 °C
C#CCN(C)c1nc(C(=O)N(C)C)cs1 | 99 to 100 °C
CCCc1n[nH]c2c(=O)[nH]c(-c3cc(S(=O)(=O)N4CCN(C)CC4)ccc3OCC)nc12 | 236 to 239 °C
CCCc1nc(C(O)CCC)c(C(N)=O)n1Cc1ccc(-c2ccccc2C(=O)O)cc1 (stereo not drawn) | 118 to 121 °C
CCC(Oc1cccc(C(F)(F)F)n1)C(=O)O (stereo not drawn) | 91 °C
Cc1cc(N(C)Cc2ccc(-c3ccc(OC(F)(F)F)cc3)nc2)ccc1OCC(=O)O | 137 to 138 °C
CCC1CCSc2ccc(Nc3ncc(Cl)c(Nc4ccccc4C(=O)NC)n3)nc2C1 (stereo not drawn) | 228 to 231 °C
C=CCn1c(C)nc2c3c(c(C(=O)OCC)cc21)CCC1(Cc2ccccc2C1)N3 | 150 °C
N=C(N)c1ccc(NC(=O)N(c2cccc(C(=N)N)c2)C2CCCCCC2)cc1 | 204 to 206 °C
O=C(O)CCCOc1cccc2c1Cc1sc(SCCC(c3ccccc3)c3ccccc3)nc1-2 | 86 to 88 °C
CC(C)Oc1ccc(C(CC(N)=O)N2C(=O)c3ccccc3C2=O)cc1OC(C)C (stereo not drawn) | 153 to 154 °C
O=[N+]([O-])C=C(NCCCCc1nc[nH]c1Br)NCCCCc1nc[nH]c1Br | 198 to 200 °C
Cc1ccc(S(=O)(=O)N2[C@@H](c3nc(C)no3)CC[C@H]2c2ccc(F)cc2)cc1 (racemic) | 128 °C
Clc1ncccc1OCC1CO1 (stereo not drawn) | 132 °C
CC(C)(C)OC(=O)CC[C@H](NC(=O)c1ccc(N(CCCl)CCCl)cc1)C(=O)OC(C)(C)C | 114 to 116 °C
ON=C(c1ccccc1)c1ccc(OCCCOc2ccc(C(=NO)c3ccccc3)cc2)cc1 | 205 to 208 °C
CC(=O)OCC1OC(n2cc(C(I)=CI)c(=O)[nH]c2=O)CC1OC(C)=O (stereo not drawn) | 76 to 78 °C
Cc1nc2c3c(c(C(=O)N(C)C)cc2n1C)CC[C@@H](c1ccccc1)O3 | 227 to 228 °C

Now from value to compound:

melting point | SMILES
69 to 70 °C | Cc1nn(-c2ccccc2)c(C)c1CC#N
126 to 130 °C | CCCCCCCCCCCCCC(=O)O[C@H](CCCCCCCCCCC)CC(=O)NC(=O)[C@@H](N)CO
182 to 183 °C | CCc1nc2c(C)nn(C)c2c2nc(C)cn12
68 to 71 °C | Cc1cc([N+](=O)[O-])c(C)cc1Oc1cccc(C(F)(F)F)c1
87 to 92 °C | CC1(C)Cc2cccc(O)c2S1
208 to 212 °C | COc1ccc2c(c1)c(Cc1nc(-c3cccc(Br)c3)cs1)c(C)n2C(=O)c1ccc(Cl)cc1
236 to 238 °C | O=C1CCC(n2cnc(-c3ccc(F)cc3)c2-c2ccnc(O)n2)CC1
58 to 60 °C | CN(C)CCc1c(CSc2ccccc2)c2ccccc2n1C
110 to 111 °C | CC(C)(C)OC(=O)c1cccc(-c2ccc([N+](=O)[O-])cc2)c1
138 to 140 °C | CSc1cc2ncnc(Cl)c2s1
148 °C | CCOC(=O)N1CCC(Nc2nc3cccnc3n2Cc2ccc(CO)o2)CC1
122 to 124 °C | O=C(CNC(=O)c1cc([N+](=O)[O-])c([N+](=O)[O-])cc1Cl)OCc1ccccc1
102 to 103 °C | Oc1cccc2c(CCc3ccccc3)ccnc12
131 °C | C=CC(CCc1ccccc1)NC(=O)c1ccccc1 (stereo not drawn)
51 to 59 °C | COCCOc1ccc(Nc2nc(Nc3cc4c(cc3OC)CCN(CC(=O)N(C)C)CC4)ncc2Cl)c(OC)c1
198 °C | O=C(NC(Cc1ccc(OCc2ccc(C(F)(F)F)cc2)cc1)C(=O)O)c1cc2cc(-c3ccc(Cl)cc3)ccc2s1 (stereo not drawn)
178 to 180 °C | COc1ccc(C(CC(=O)O)N2C(=O)c3cccc([N+](=O)[O-])c3C2=O)cc1 (stereo not drawn)
283 °C | COc1ccccc1-c1nc2cc(NC(=O)c3c(C(=O)O)cnn3C)ccn2n1
114 to 117 °C | COC(=O)c1cc(-c2ccc(OC)c(F)c2)nn(CC2CC2)c1=O
119 to 121 °C | COc1ccccc1N1CCN(CCN(C(=O)C2CCCCC2)c2ccccc2[N+](=O)[O-])CC1
112 to 113 °C | O=C(NC(Cc1ccccc1)C(=O)O)OCc1ccc(COc2ccc(F)cc2)cc1 (stereo not drawn)
86 to 88 °C | CC(=O)c1cc(Cl)sc1SCc1ccccc1
91 to 92 °C | COC(=O)c1ccccc1SC1=C(O)CC(CCc2ccccc2)(c2ccccc2)OC1=O (stereo not drawn)
240 to 245 °C | C=C1Cc2cc3c(cc2C(c2ccc(N(C(C)=O)C(C)=O)cc2)=NN1C(C)=O)OCO3
151 to 152 °C | CC(C)OC(=O)C(C(=O)Nc1ccc(C(F)(F)F)cc1)=C1SCS1
288 to 290 °C | O=C1CCC(N2C(=O)c3ccc(CNC(=O)Nc4ccccc4)cc3C2=O)C(=O)N1 (stereo not drawn)
174 to 175 °C | C=CCN(CC=C)c1nc(NC(=O)c2ccccc2)n2oc(=O)nc2n1
245 to 246 °C | CC(=O)N1CCN(c2ccc(Nc3nccc(-c4sc(Nc5ccccc5)nc4C)n3)cc2)CC1
